The subject of one assay is parental (WT) line Col-0. Nature of the assay: Growth on liquid growth medium with phosphite or phosphate as phosphorus source. It counts as in vivo, Arabidopsis thaliana. The method, then:
(§1) The parental line and the PTXD-3 and PTXD-5 transgenic lines were tested for the ability to grow on a liquid medium, with or without inorganic phosphate (Pi) as the source of phosphorus. Seeds from the parental and transgenic lines were germinated in liquid media and tested for growth.
(§2) In FIG. 7, the absence or presence of sustained plant growth (beyond the germination stage) is identified with a minus (−) or a plus (+) symbol, respectively. […] Therefore, the transgenic lines acquired the ability to metabolize phosphite as a phosphorus source to support plant growth.

Assay [1] concerns transgenic PTXD-3 and PTXD-5 lines. The assay is described as above. It counts as in vivo, Arabidopsis thaliana. The protocol: Two transgenic Arabidopsis lines, dubbed PTXD-3 and PTXD-5, were prepared and isolated as described in Example 1. Each line is homozygous for the ptxD expression construct of Example 1.
as §1, §2

In assay [2] the test system is transgenic tobacco homozygous for the 35S::PtxD gene. Put plainly: Tobacco seedling growth in MS media with phosphate or phosphite as only phosphorus source. It is filed as in vivo, Nicotiana tabacum. As to conditions: for seedling growth: MS media, 25 days after germination, FIG. 13. The method, then: (§3) Nicotiana tabacum was transformed with the expression construct described in Example 1. In particular, tobacco leaf explants were co-cultivated with an Agrobacterium strain harboring a 35S::PtxD construct (Example 1) within its T-DNA. Leaf discs were allowed to regenerate in MS media containing 1 mM phosphite as the only phosphorus source. Plants regenerated from these leaf discs on phosphite-containing media were transferred to soil and allowed to set seed under greenhouse conditions.
(§4) The presence or absence of growth (after depletion of seed-furnished phosphorus) is indicated by a plus (+) or a minus (−) symbol, respectively.
(§5) Seedlings were germinated and maintained in MS media supplemented with 1 mM phosphite as the only phosphorus source for 25 days. The seedlings then were transferred to tissue culture flasks containing MS with 1 mM phosphite as the only phosphorus source and were allowed to grow for 25 additional days in a plant growth chamber at 23° C., with a photoperiod of 18 h light, followed by 6 h darkness for each 24-hour period.

The next assay has as its system parental (WT) plants. Nature of the assay: Growth and dry weight on sand:vermiculite substrate with phosphate or phosphite. It is filed as in vivo, Arabidopsis thaliana. As to conditions: sand:vermiculite (1:1). The method, then: (§6) FIGS. 10 and 11 show photographs of parental and ptxD transgenic plants distributed according to FIG. 9 and tested for growth on a substrate containing added phosphate (Pi) (FIG. 10) or phosphite (Phi) (FIG. 11) as the source of phosphorus. […] The plants here and in FIG. 11 were grown in a sand:vermiculite mixture (1:1) and received water and nutrient solutions (lacking any other phosphorus source except as previously indicated) periodically.
(§7) The dry weight of three plants cultivated in sand:vermiculite (1:1) as substrate is plotted in the figure with respect to each particular plant line and source(s) of phosphorus.

In assay [3] the test system is ptxD transgenic (PTXD) plants. Described as above. It is filed as in vivo, Arabidopsis thaliana. The following applies: sand:vermiculite (1:1). The method, then:
as §6, §7

Assay [4] relates to Control plants (wild-type Col-0). Put plainly: Growth in media containing only phosphite as external source of phosphorus. It is filed as in vivo, Arabidopsis thaliana. As to conditions: only phosphite (about 0.1 to 5 mM) as external source of phosphorus. The method, then: (§8) The transformed Agrobacterium clone was used to transform Arabidopsis thaliana (ecotype Col-0) (generally described herein as “wild-type” (WT)) using a modified floral dip method. Transformed T0 progeny were selected using phosphinothricin resistance. In particular, screening was performed with MS 0.1× media containing phosphinothricin (20 mg/L). Twenty-eight resistant lines were identified through PCR amplification of the ptxD gene.
(§9) The ptxD transgenic plants were tested for their ability to grow in media containing only phosphite (e.g., about 0.1 to 5 mM) as an external source of phosphorus.

For assay [5], the system named is transgenic plants (PTXD-3 and PTXD-5). Nature of the assay: Reduction of total phosphorus in growth medium containing phosphite (vanadium-molybdate method). It is filed as in vivo, Arabidopsis thaliana. The following applies: initially 50, 100 or 1000 μM phosphite; 45 days; 100 plants per container; FIG. 8. The source says: Wild type and the two transgenic Arabidopsis lines, PTXD-3 and PTXD-5, were germinated and cultivated in one-liter plastic containers with 0.1× Murashige and Skoog liquid medium lacking phosphate and supplemented with either 50, 100 or 1000 micromolar phosphorous acid (H3PO3). One hundred plants per plastic container were allowed to grow for 45 days in the plastic container in a growth chamber with a 16:8 light:dark cycle for each 24-hour period. The plants were covered to avoid moisture loss. A double layer of plastic mesh was placed where seeds were sown to germinate on top of liquid media in each plastic container.
After 45 days of growth the total phosphorus content was determined in the liquid media, after removing the plants, using a vanadium-molybdate method. Briefly, 5 mL of liquid media from each sample was digested with nitric acid:perchloric acid (HNO3:HClO4; 5:1). Then, the phosphorus content was determined with a colorimetric method based on the addition of a solution of ammonium molybdate (20 mM) and ammonium metavanadate (10 mM) in 70% perchloric acid. After a 20-minute incubation at room temperature, the absorbance at 400 nm was measured with a spectrophotometer.
In FIG. 8, the first three bars labeled as “initial” represent the initial concentration of total phosphorus in the media without plants. […]

In another assay the test system is ptxD transgenic plants. Put plainly: Growth or selection in media containing only phosphite as external source of phosphorus. It counts as in vivo, Arabidopsis thaliana. The method, then: as §8, §9
The ptxD expression construct also was used to provide a selectable marker for selection of transgenic plants with modified phosphorus metabolism. Wild-type Col-0 plants were transformed using Agrobacterium containing the ptxD expression construct. T0 progeny (seeds) were plated on a medium with phosphite (5 mM) as the source of phosphorus.

The test system of assay [6] is control tobacco seedlings. Put plainly: Tobacco seedling growth in MS media with phosphate or phosphite as only phosphorus source. It is filed as in vivo, Nicotiana tabacum. The protocol: as §3, §4, §5
The mark [7] stands for this setting: 50 μM inorganic phosphate, FIG. 7.
[8] abbreviates: 50, 100, and 1000 μM inorganic phosphite as phosphorus source, FIG. 7.
Setting [9] is: MS with 1 mM phosphite as only phosphorus source, 25 days plus 25 additional days, FIG. 14.

We go through 2 compounds from US10851386B2, “Plants transformed to express a phosphite dehydrogenase enzyme capable of metabolizing phosphite to reduce competition from weeds” (Centro de Investigación y de Estudios Avanzados del …, priority 2008, dated 2020).

As to `O=P(O)(O)O` [phosphate, phosphoric acid (H3PO4)], the growth entry in the assay with parental (WT) line Col-0 (setting [7]) is “grew efficiently”; in the assay on parental (WT) line Col-0 (50, 100, and 1000 μM phosphate), “grew efficiently”; in assay [1] (setting [7]) it was “grew efficiently”; in [1] (50, 100, and 1000 μM phosphate), “grew efficiently”. Moreover, the seedling growth entry in assay [2] (1 mM Pi as only phosphorus source) is “sustained growth”.

For the compound `OP(O)O` [phosphite, phosphorous acid (H3PO3)], the growth entry is recorded as “but not the parental line” with parental (WT) line Col-0 (setting [8]); “grew efficiently” in assay [1] (setting [8]); “no substantial growth” in [4]; “grew efficiently” in the assay on ptxD transgenic plants (only phosphite (about 0.1 to 5 mM) as external source of phosphorus); “able to sustain rapid growth” in assay [2] (setting [9]). Moreover, the “sustained growth on substrate” value in the assay with parental (WT) plants (added phosphite (Phi), FIG. 11) is “only the transgenic plants were capable of sustained growth”; in [3] (added phosphite (Phi), FIG. 11), “only the transgenic plants were capable of sustained growth”. In addition, the “growth (dry weight of three plants)” value in the assay with parental (WT) plants (phosphite as the source of phosphorus, FIG. 12) is reported as “did not grow substantially”. Besides, the “growth (dry weight of three plants) on phosphite relative to phosphate” value in assay [3] (FIG. 12) was “grew similarly or better”. The “decrease of phosphorus content in the media (removal of phosphite)” value in assay [5] was “more than 50%”. Moreover, in the assay on ptxD transgenic plants (medium with phosphite (5 mM) as the source of phosphorus, FIG. 6), the “growth of T0 progeny relative to wild type plants” value is “substantial growth advantage”. Also, the seedling growth entry in assay [6] (MS media, 1 mM Phi as only phosphorus source, 25 days after germination, FIG. 13) was “unable to sustain normal growth”; in assay [2] (1 mM Phi as only phosphorus source), “sustained growth”. For the same compound, the growth and development result in [6] (setting [9]) is listed as “unable to use phosphite”.
